According to paper PMC8725837, “2-Arylquinolines as novel anticancer agents with dual EGFR/FAK kinase inhibitory activity: synthesis, biological evaluation, and molecular modelling insights” (Journal of Enzyme Inhibition and Medicinal Chemistry, 2021):

Assays:
FRK = biological target: T1, FRK (Homo sapiens, UniProt P42685); assay: Z`-LYTE kinase profiling, FRK; format: biochemical
T1 construct: purchased Invitrogen/Life Technologies

recombinant human TOP1 = biological target: T2, recombinant human TOP1 (Homo sapiens, UniProt P11387); assay: Topoisomerase I-mediated DNA cleavage assay; settings: tested at 0.1, 1, 10, 100 µM
T2 sequence (P11387 1-765): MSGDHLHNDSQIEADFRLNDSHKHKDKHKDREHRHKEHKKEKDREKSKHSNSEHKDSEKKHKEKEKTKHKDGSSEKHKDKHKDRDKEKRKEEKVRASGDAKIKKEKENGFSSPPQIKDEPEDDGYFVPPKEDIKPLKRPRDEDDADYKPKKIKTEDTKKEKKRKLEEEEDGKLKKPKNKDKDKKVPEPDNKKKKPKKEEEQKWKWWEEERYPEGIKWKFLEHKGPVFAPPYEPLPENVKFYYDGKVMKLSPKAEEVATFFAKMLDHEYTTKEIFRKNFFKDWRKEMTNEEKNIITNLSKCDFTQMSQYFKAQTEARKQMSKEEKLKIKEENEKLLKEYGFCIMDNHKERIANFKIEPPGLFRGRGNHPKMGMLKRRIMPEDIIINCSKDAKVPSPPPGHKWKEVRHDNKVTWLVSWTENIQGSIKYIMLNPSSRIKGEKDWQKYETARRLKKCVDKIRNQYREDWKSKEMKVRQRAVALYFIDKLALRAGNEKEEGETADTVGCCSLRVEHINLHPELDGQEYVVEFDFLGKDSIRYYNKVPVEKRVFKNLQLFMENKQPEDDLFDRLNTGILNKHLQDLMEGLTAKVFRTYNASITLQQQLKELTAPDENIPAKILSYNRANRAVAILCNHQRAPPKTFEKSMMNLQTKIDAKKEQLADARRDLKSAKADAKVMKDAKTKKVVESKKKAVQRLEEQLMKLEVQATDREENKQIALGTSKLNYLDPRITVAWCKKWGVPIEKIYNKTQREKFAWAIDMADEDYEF
Experimental: Radiolabeled DNA was incubated with recombinant human TOP1 in 20 µL reaction buffer (10 mmol/L Tris-HCl, pH 7.5, 50 mmol/L KCl, 5 mmol/L MgCl2, 0.1 mmol/L EDTA, and 15 µg/mL BSA) at 30 °C for 20 min in the presence of the indicated drug concentrations. Reactions were terminated by adding SDS (0.5% final concentration) followed by the addition of two volumes of loading dye (80% formamide, 10 mmol/L sodium hydroxide, 1 mmol/L sodium EDTA, 0.1% xylene cyanol, and 0.1% bromophenol blue). Aliquots of reaction mixtures were subjected to 20% denaturing PAGE. Gels were dried and visualised by using PhosphorImager and Image Quant software (Molecular Dynamics).

BTK = biological target: T3, BTK (Homo sapiens, UniProt Q06187); assay: Z`-LYTE kinase profiling, BTK; format: biochemical
T3 construct: purchased Invitrogen/Life Technologies

[1] = test system: HCT-116 colorectal cancer cell line; assay: MTT antiproliferative assay, HCT-116; settings: for GI% HCT-116: 10 µM, 24 h, MTT; for IC50: Homo sapiens, HCT-116, 24 h, read-out: IC50 HCT-116 (half maximal growth inhibitory concentration)
[2] = test system: MDMBA-231 breast cancer cell line; assay: MTT antiproliferative assay, MDMBA-231; format: cell-based; settings: 10 µM, 24 h
Experimental: (§1) At least, three independent experiments were performed.

VEGFR-1 = biological target: T4, VEGFR-1 (Homo sapiens, UniProt P17948); assay: Z`-LYTE kinase profiling, VEGFR-1; format: biochemical
T4 construct: purchased Invitrogen/Life Technologies

[3] = test system: HeLa cervical cancer cell line; assay: MTT antiproliferative assay, HeLa; format: cell-based; settings: 10 µM, 24 h
Experimental: as §1

EGFR = EGFR (Homo sapiens, UniProt P00533); assay: Z`-LYTE kinase inhibitory assay, EGFR
IGF-1R = biological target: T5, IGF-1R (Homo sapiens, UniProt P08069); assay: Z`-LYTE kinase profiling, IGF-1R; format: biochemical
T5 construct: purchased Invitrogen/Life Technologies

FAK = FAK (Homo sapiens, UniProt Q05397); assay: Z`-LYTE kinase inhibitory assay, FAK
HER-2 = biological target: T6, HER-2 (Homo sapiens, UniProt P04626); assay: Z`-LYTE kinase profiling, HER-2; format: biochemical
T6 construct: purchased Invitrogen/Life Technologies

c-Src = biological target: T7, c-Src (Homo sapiens, UniProt P12931); assay: Z`-LYTE kinase profiling, c-Src; format: biochemical
T7 construct: purchased Invitrogen/Life Technologies

[4] = test system: DLD-1 colorectal cancer cell line; assay: MTT antiproliferative assay, DLD-1; settings: for GI% DLD1: 10 µM, 24 h, MTT; for IC50: Homo sapiens, DLD-1, 24 h, read-out: IC50 DLD1 (half maximal growth inhibitory concentration); for fold superior activity compared to Gefitinib, DLD-1: from IC50 values
Experimental: After the incubation of the tested compounds for 24 h, the percent growth inhibition (GI%) was calculated.
Cells were seeded at 1 × 10^4 cells/well and cultured overnight in a 96-well plate. […] Then, 150 µl DMSO was used to solubilise MTT formazan crystals. Finally, the plates were shaken, and the optical density was determined at 570 nm using ELISA plate reader. At least, three independent experiments were performed. Percentage of growth inhibition was determined as (1-[OD of treated cells/OD of control cells]). […] The IC50 values were calculated using Prism v0.8 software (GraphPad Software Inc., La Jolla, CA).

[5] = test system: DLD-1 colorectal cancer cell line; assay: Annexin V-FITC/propidium iodide apoptosis assay (AV/PI); format: cell-based; settings: 3 µM, 24 h; control 7%
Experimental: Also, compounds 6f, 6i, 16d, and 20f exerted potential apoptotic effect elevating the total percentage of apoptotic cells to 84.33, 71.66, 51.66, and 80.66%, respectively.
Flow cytometric analysis was conducted using FACS Calibur flow cytometer (BD Biosciences, San Jose, CA, USA).

VEGFR-2 = biological target: T8, VEGFR-2 (Homo sapiens, UniProt P35968); assay: Z`-LYTE kinase profiling, VEGFR-2; format: biochemical
T8 construct: purchased Invitrogen/Life Technologies

[6] = test system: MCF-7 breast cancer cell line; assay: MTT antiproliferative assay, MCF-7; format: cell-based; settings: 10 µM, 24 h
Experimental: as §1

T4 sequence (P17948 27-1338): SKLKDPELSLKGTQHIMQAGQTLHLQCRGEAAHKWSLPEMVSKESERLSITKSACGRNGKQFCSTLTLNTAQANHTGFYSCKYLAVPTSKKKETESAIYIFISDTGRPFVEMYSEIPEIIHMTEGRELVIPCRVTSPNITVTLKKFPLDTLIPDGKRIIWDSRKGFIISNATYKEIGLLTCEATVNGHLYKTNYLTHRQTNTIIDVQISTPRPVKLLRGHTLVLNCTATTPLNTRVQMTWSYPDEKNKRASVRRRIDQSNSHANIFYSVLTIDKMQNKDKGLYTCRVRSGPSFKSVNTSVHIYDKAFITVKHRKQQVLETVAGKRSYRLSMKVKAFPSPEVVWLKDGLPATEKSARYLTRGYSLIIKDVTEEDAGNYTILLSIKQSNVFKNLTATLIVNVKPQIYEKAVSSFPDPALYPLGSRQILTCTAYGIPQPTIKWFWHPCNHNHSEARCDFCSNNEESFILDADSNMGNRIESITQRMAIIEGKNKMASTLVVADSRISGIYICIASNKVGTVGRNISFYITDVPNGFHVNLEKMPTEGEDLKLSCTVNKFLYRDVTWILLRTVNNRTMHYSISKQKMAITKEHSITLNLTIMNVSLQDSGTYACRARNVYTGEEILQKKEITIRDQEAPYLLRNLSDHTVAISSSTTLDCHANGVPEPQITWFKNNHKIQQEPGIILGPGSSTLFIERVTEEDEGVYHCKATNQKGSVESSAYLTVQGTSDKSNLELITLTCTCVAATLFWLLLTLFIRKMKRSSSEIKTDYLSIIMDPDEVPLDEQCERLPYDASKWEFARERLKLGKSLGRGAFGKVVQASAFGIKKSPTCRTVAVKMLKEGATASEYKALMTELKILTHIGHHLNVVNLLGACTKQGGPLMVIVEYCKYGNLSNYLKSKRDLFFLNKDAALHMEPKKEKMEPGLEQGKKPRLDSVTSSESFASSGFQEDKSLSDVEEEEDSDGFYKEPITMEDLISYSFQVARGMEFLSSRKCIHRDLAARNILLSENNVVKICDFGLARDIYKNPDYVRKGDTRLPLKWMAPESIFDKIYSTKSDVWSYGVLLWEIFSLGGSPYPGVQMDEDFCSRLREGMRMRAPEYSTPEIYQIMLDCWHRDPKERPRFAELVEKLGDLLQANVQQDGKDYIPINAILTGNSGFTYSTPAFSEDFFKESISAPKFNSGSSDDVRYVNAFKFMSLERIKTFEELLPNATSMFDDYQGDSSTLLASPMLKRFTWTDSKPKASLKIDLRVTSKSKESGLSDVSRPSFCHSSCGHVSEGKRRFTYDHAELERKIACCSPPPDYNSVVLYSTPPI
T3 sequence (Q06187 whole entry): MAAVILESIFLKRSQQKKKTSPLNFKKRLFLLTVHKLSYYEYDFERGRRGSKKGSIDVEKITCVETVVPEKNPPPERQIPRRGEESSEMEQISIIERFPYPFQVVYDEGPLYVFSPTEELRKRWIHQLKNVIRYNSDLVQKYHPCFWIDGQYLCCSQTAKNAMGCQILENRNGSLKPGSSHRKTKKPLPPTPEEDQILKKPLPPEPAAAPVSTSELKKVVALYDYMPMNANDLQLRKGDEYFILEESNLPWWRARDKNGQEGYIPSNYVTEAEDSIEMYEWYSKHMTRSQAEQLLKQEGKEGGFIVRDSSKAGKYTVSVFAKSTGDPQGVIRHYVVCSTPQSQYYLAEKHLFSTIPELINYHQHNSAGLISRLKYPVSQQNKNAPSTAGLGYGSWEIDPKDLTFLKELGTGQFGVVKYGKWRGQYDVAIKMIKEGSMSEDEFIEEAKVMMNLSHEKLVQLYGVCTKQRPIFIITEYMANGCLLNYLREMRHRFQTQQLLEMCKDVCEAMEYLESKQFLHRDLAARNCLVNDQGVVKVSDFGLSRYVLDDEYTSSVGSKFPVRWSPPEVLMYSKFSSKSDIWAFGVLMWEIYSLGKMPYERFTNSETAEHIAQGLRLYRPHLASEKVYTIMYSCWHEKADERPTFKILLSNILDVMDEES
Sequence of FAK (Q05397 whole entry): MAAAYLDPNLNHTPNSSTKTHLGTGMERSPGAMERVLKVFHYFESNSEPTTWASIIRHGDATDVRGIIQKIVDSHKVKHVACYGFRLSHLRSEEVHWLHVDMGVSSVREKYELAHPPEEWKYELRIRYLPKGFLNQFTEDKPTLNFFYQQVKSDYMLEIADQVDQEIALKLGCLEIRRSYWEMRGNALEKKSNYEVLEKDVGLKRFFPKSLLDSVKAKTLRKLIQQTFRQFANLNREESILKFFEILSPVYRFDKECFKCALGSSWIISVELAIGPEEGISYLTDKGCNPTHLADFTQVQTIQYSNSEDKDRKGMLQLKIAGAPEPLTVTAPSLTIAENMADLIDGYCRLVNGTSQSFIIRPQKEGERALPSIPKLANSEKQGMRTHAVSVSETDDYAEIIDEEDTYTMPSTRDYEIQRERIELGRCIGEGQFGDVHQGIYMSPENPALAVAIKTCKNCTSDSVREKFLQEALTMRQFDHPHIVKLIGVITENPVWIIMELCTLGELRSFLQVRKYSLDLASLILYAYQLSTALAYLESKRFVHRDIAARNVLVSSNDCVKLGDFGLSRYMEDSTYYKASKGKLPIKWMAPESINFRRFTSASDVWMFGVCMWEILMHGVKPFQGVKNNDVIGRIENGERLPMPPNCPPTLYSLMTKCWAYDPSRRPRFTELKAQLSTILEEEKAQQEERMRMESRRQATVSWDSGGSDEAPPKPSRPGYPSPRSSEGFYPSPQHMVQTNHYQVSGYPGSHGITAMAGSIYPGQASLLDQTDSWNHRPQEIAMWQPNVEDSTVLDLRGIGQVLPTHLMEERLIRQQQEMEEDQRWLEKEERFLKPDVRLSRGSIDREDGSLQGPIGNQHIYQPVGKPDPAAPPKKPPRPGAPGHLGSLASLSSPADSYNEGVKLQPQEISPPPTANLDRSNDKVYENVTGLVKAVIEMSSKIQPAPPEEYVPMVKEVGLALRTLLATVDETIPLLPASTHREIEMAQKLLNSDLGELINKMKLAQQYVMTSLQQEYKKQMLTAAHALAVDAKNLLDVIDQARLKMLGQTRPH
T1 sequence (P42685 whole entry): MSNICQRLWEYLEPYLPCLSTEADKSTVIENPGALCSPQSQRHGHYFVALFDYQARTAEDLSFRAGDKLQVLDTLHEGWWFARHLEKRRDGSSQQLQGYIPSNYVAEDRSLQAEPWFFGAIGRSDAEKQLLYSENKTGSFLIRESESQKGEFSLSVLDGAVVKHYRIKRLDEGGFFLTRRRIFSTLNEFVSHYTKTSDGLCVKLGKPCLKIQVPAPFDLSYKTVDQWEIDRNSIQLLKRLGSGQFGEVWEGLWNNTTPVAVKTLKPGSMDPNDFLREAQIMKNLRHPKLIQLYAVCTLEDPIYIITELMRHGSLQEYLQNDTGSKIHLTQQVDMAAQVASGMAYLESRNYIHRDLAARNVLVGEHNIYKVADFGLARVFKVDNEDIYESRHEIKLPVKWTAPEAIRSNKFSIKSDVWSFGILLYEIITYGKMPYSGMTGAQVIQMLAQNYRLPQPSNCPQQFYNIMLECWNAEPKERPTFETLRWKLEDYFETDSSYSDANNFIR
T8 sequence (P35968 20-1356): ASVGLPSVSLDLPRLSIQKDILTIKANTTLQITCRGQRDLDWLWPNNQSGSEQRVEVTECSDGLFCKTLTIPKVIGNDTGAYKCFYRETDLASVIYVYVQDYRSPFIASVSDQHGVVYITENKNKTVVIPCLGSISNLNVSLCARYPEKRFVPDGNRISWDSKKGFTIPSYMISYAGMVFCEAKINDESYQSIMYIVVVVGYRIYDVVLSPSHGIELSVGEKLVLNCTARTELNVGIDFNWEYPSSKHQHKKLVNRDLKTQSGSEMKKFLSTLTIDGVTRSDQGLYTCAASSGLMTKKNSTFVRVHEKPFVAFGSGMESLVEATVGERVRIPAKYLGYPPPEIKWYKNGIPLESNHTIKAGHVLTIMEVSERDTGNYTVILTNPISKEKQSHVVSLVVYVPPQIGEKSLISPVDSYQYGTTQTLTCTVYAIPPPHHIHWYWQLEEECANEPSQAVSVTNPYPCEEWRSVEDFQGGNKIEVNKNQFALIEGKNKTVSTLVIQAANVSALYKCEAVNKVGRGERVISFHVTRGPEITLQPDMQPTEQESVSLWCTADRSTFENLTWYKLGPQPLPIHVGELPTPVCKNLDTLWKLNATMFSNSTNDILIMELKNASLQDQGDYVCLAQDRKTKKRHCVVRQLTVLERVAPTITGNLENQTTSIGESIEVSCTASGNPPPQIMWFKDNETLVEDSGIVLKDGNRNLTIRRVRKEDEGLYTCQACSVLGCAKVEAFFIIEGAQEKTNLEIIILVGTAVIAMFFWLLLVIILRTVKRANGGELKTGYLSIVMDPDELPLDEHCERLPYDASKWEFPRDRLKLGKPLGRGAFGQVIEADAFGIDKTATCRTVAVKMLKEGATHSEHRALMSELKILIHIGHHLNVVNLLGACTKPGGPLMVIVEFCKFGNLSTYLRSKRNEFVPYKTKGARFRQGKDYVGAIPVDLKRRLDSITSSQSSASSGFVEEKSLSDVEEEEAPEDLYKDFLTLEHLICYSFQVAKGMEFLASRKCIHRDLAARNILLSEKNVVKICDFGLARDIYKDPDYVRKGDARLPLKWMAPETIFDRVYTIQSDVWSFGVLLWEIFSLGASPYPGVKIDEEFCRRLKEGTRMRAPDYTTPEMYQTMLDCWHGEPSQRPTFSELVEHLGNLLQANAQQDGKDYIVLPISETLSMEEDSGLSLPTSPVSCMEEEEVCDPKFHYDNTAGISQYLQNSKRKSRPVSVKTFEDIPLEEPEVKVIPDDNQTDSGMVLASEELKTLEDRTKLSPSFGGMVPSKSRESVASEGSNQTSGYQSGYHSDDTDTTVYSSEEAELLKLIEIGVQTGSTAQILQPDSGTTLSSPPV

Compound	IC50 (FRK)	TOP1 inhibitory activity (semiquantitative score relative to 1 µM CPT) (recombinant human TOP1)	IC50 (BTK)	GI% HCT-116 [1]	IC50 [1]	GI% MDMBA-231 [2]	IC50 (VEGFR-1)	GI% Hela [3]	IC50 (EGFR)	IC50 (IGF-1R)	IC50 (FAK)	IC50 (HER-2)	IC50 (c-Src)	GI% DLD1 [4]	IC50 [4]	fold superior activity compared to Gefitinib, DLD-1 [4]	total percentage of AV positive apoptotic DLD-1 cells [5]	IC50 (VEGFR-2)	GI% MCF-7 [6]	melting point
COc1cc2nc(-c3ccc(C(F)(F)F)cc3)cc(OCCCN3CCN(C)CC3)c2cc1OC [6f, 6,7-dimethoxy-4–(3-(4-methylpiperazin-1-yl)propoxy)-2–(4-(trifluoromethyl)phenyl)quin-oline]	5050 nM	0	8.79 µM	88.46%	3.09 ± 1.05 µM	75.34%	1730 nM	69.17%	25.4 ± 3.49 nM	5350 nM	22.7 ± 2.38 nM	639 nM	3.94 µM	95.36%	2250 ± 960 nM	4 fold	84.33%	1940 nM	94.36%	
COc1cc2nc(-c3ccc(C(F)(F)F)cc3)cc(OCCCNC3CCN(C)CC3)c2cc1OC [6h, N-(3-((6,7-dimethoxy-2–(4-(trifluoromethyl)phenyl)quinolin-4-yl)oxy)propyl)-1-methyl p-iperidin-4-amine]	330 nM	−/+ (−/+: 0–25% 1 µM CPT)	3.48 µM	89.34%	3.28 ± 0.67 µM	84.76%	464 nM	90.78%	20.2 ± 1.07 nM	197 nM	14.2 ± 2.72 nM	1580 nM	3.58 µM	92.36%	1790 ± 210 nM	5 fold	90.33%	2450 nM	90.36%	
COc1cc2nc(-c3ccc(C(F)(F)F)cc3)cc(OCCCNCC3CCCO3)c2cc1OC (stereo not shown) [6i, 3-((6,7-dimethoxy-2–(4-(trifluoromethyl)phenyl)quinolin-4-yl)oxy)-N-((tetrahydrofuran-2-yl)methyl)propan-1-amine]	1210 nM	0	7.29 µM	82.11%	5.68 ± 1.42 µM	81.60%	801 nM	78.64%	22.4 ± 2.05 nM	1710 nM	18.4 ± 3.17 nM	1380 nM	7.01 µM	88.76%	2480 ± 860 nM	4 fold	71.66%	8240 nM	89.49%	
COc1ccc(-c2ccc3nc(-c4ccc(F)cc4)cc(OCCCn4ccnc4)c3c2)cc1 [20c, 4-(3-(1H-imidazol-1-yl)propoxy)-2-(4-fluorophenyl)-6-(4-methoxyphenyl)quinoline]	1440 nM	0	8.67 µM	38.64%	12.5 ± 3.05 µM	32.11%	1750 nM	22.08%	362 ± 5.26 nM	1880 nM	91 ± 5.85 nM	1230 nM	9.05 µM	41.34%	16000 ± 1100 nM			8970 nM	76.82%	176 to 178 °C
COc1ccc(-c2ccc3nc(-c4ccc(F)cc4)cc(OCCCN4CCOCC4)c3c2)cc1 [20d, 4-(3-((2-(4-fluorophenyl)-6-(4-methoxyphenyl)quinolin-4-yl)oxy)propyl)morpholine]	133 nM	0	1.78 µM	36.91%	29.5 ± 4.15 µM	27.05%	712 nM	11.97%	147 ± 8.37 nM	41.2 nM	125 ± 3.15 nM	1770 nM	0.251 µM	24.65%	65300 ± 5360 nM			294 nM	15.34%	168 to 170 °C
Clc1ccc(-c2cc(OCCCn3ccnc3)c3cc(-c4ccco4)ccc3n2)cc1 [20e, 4-(3-(1H-imidazol-1-yl)propoxy)-2-(4-chlorophenyl)-6-(furan-2-yl)quinoline]	216 nM	0	0.271 µM	89.64%	4.75 ± 1.02 µM	56.29%	720 nM	65.73%	33.7 ± 1.02 nM	3010 nM	25.4 ± 3.48 nM	98.8 nM	0.138 µM	90.65%	4460 ± 650 nM			243 nM	73.61%	130 to 132 °C
Clc1ccc(-c2cc(OCCCN3CCOCC3)c3cc(-c4ccco4)ccc3n2)cc1 [20f, 4-(3-((2-(4-chlorophenyl)-6-(furan-2-yl)quinolin-4-yl)oxy)propyl)morpholine]	632 nM	0	0.0235 µM	91.37%	2.96 ± 0.12 µM	82.58%	870 nM	79.64%	24.8 ± 2.71 nM	3530 nM	15.4 ± 0.98 nM	251 nM	0.0921 µM	94.18%	2090 ± 140 nM	4 fold	80.66%	89.3 nM	87.36%	
